Test results from patent US9604989B2, “Imidazopyridazines as Akt kinase inhibitors” (Bayer Intellectual Property GmbH, priority 2011, dated 2017).

Experiments:
[1] = tested on: MCF-7 breast tumour cell line; test: Tumor cell proliferation assay (CellTiter-Glo), MCF-7; format: cell-based; conditions: Homo sapiens, MCF7, 72 h drug exposure, read-out: MCF-7 median IC50
Protocol: (§1) Biological Assay 4.0: Tumor Cell Proliferation Assays
(§2) Compounds were tested in a cell-based assay that measures the capacity of the compounds to inhibit tumour cell proliferation following a 72 h drug exposure. Cell viability is determined using CellTiter-Glow® (CTG, Promega, cat#G7571/2/3). The CellTiter-Glo® Luminescent Cell Viability Assay is a homogeneous method to determine the number of viable cells in culture.
(§3) Detection is based on using the luciferase reaction to measure the amount of ATP from viable cells. The amount of ATP in cells correlates with cell viability. Within minutes after a loss of membrane integrity, cells lose the ability to synthesize ATP, and endogenous ATPases destroy any remaining ATP; thus the levels of ATP fall precipitously.
(§4) For each cell line assayed, cells were plated onto a separate plate for determination of fluorescence at t=0 hour and t=72 hour time points. Following overnight incubation at 37° C., chemiluminescence values for the t=0 samples were determined after adding 10 μl medium and 100 μl CTG solution according to manufacture protocol. Plates for the t=72 hour time points were treated with compounds diluted into growth medium at ten times final concentration added in 10 μL to the cell culture plate. Cells were then incubated for 72 hours at 37° C. Chemiluminescence values for the t=72 hour samples were determined. […] Experiments were controlled using a reference compound as standard.

[2] = molecular target: His-tagged human recombinant kinase full-length Akt2 (Homo sapiens (Human), UniProt P31751); test: Akt2 kinase assay (Akt2 TR-FRET assay); format: biochemical; conditions: 10 μM ATP, 60 min at 22° C., read-out: Akt2 median IC50
Sequence of His-tagged human recombinant kinase full-length Akt2 (P31751 whole entry): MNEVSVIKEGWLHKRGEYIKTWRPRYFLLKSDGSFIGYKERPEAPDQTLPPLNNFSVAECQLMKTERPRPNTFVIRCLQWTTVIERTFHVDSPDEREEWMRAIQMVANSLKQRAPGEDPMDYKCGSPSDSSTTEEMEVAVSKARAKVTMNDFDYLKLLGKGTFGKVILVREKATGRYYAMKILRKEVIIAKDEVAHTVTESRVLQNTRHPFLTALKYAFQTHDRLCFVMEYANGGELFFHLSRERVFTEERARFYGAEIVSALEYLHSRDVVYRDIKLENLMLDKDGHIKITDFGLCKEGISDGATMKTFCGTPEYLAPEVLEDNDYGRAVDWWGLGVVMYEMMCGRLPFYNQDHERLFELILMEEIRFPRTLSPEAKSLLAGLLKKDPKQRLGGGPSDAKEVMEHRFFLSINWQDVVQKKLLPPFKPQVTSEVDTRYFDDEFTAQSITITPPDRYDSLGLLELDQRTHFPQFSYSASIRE
Description: Akt2 inhibitory activity of compounds of the present invention was quantified employing the Akt2 TR-FRET assay as described in the following paragraphs.
His-tagged human recombinant kinase full-length Akt2 expressed in insect cells and activated by PDK1 was purchased form Invitrogen (part number PV 3975). As substrate for the kinase reaction the biotinylated peptide biotin-Ahx-[sequence] (C-terminus in amide form) was used which can be purchased e.g. from the company Biosynthan GmbH (Berlin-Buch, Germany). For the assay 50 nl of a 100 fold concentrated solution of the test compound in DMSO was pipetted into a black low volume 384 well microtiter plate (Greiner Bio-One, Frickenhausen, Germany), 2 μl of a solution of Akt2 in assay buffer [50 mM TRIS/HCl pH 7.5, 5 mM MgCl2, 1 mM dithiothreitol, 0.02% (v/v) Triton X-100 (Sigma)] were added and the mixture was incubated for 15 min at 22° C. to allow pre-binding of the test compounds to the enzyme before the start of the kinase reaction. Then the kinase reaction was started by the addition of 3 μl of a solution of adenosine-tri-phosphate (ATP, 16.7 μM=>final conc. in the 5 μl assay volume is 10 μM) and substrate (1.67 μM=>final conc. in the 5 μl assay volume is 1 μM) in assay buffer and the resulting mixture was incubated for a reaction time of 60 min at 22° C. The concentration of Akt2 in the assay was adjusted depending of the activity of the enzyme lot and was chosen appropriate to have the assay in the linear range, typical enzyme concentrations were in the range of about 0.2 ng/μl (final conc. in the 5 μl assay volume). The reaction was stopped by the addition of 5 μl of a solution of HTRF detection reagents (200 nM streptavidine-XL665 [Cisbio] and 1.5 nM anti-phosho-Serine antibody [Millipore, cat. #35-001] and 0.75 nM LANCE Eu-W 1024 labeled anti-mouse IgG antibody [Perkin Elmer]) in an aqueous EDTA-solution (100 mM EDTA, 0.1% (w/v) bovine serum albumin in 50 mM HEPES/NaOH pH 7.5). The resulting mixture was incubated 1 h at 22° C. to allow the binding of the biotinylated phosphorylated peptide to the streptavidine-XL665 and the antibodies. Subsequently the amount of phosphorylated substrate was evaluated by measurement of the resonance energy transfer from the anti-mouse-IgG-Eu-Chelate to the streptavidine-XL665. Therefore, the fluorescence emissions at 620 nm and 665 nm after excitation at 350 nm was measured in a TR-FRET reader, e.g. a Rubystar (BMG Labtechnologies, Offenburg, Germany) or a Viewlux (Perkin-Elmer). The ratio of the emissions at 665 nm and at 622 nm was taken as the measure for the amount of phosphorylated substrate.

[3] = tested on: KPL-4 breast cancer cell line; test: Tumor cell proliferation assay (CellTiter-Glo), KPL-4; format: cell-based; conditions: Homo sapiens, KPL4, 72 h drug exposure, read-out: KLP-4 median IC50
Protocol: as §1, §2, §3, §4

p-4E-BP1 at T70 = test: Cellular p-4E-BP1-T70 assay in KPL-4 cells; format: cell-based; conditions: Homo sapiens, KPL4; KPL-4 breast tumour cell line, compound treatment 2 hours; read-out: P4EBP1-T70 median IC50
Protocol: The molecular mechanism of action was investigated in a set of experiments to assess the inhibition of the PI3K-AKT-mTOR pathway in responsive cell lines such as KPL-4 breast tumour cell line (PIK3CA^H1047R, HER2^O/E and hormone independent). The phospho-substrates of PI3K-AKT-mTOR axis were used as the read-outs to reflect pathway inhibition. Cells were seeded at 60-80% confluency per well in 96-well cell culture plates. After overnight incubation at 37° C. 5% CO2, cells were treated with compounds and vehicle at 37° C. for 2 hours. […] All measurements where at least done in duplicates and confirmed by independent repetition.

phospho-AKT at S473 = test: Cellular p-AKT1/2/3-S473 assay in KPL-4 cells; format: cell-based; conditions: Homo sapiens, KPL4; KPL-4 breast tumour cell line, compound treatment 2 hours; read-out: pAKT-S473 median IC50
[4] = molecular target: His-tagged human recombinant kinase full-length Akt1 (Homo sapiens (Human), UniProt P31749); test: Akt1 kinase assay (Akt1 TR-FRET assay); format: biochemical; conditions: 10 μM ATP, 60 min at 22° C., read-out: Akt1 median IC50
Sequence of His-tagged human recombinant kinase full-length Akt1 (P31749 whole entry): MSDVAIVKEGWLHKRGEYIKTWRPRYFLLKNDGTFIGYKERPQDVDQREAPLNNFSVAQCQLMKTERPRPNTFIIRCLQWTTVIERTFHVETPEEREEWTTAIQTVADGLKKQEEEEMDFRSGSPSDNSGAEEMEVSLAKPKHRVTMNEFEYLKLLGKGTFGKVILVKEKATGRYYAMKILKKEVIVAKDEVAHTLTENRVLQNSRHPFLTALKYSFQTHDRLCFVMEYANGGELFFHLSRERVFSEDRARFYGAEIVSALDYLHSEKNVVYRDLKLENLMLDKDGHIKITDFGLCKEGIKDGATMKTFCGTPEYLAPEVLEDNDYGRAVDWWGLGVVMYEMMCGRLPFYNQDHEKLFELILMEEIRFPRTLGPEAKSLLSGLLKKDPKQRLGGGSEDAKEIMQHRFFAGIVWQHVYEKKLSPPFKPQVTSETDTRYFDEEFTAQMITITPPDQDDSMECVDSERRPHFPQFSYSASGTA
Description: Biological Assay 1.0: Akt1 Kinase Assay
Akt1 inhibitory activity of compounds of the present invention was quantified employing the Akt1 TR-FRET assay as described in the following paragraphs.
His-tagged human recombinant kinase full-length Akt1 expressed in insect cells was purchased form Invitrogen (part number PV 3599). As substrate for the kinase reaction the biotinylated peptide biotin-Ahx-[sequence] (C-terminus in amide form) was used which can be purchased e.g. from the company Biosynthan GmbH (Berlin-Buch, Germany).
For the assay 50 nl of a 100 fold concentrated solution of the test compound in DMSO was pipetted into a black low volume 384 well microtiter plate (Greiner Bio-One, Frickenhausen, Germany), 2 μl of a solution of Akt1 in assay buffer [50 mM TRIS/HCl pH 7.5, 5 mM MgCl2, 1 mM dithiothreitol, 0.02% (v/v) Triton X-100 (Sigma)] were added and the mixture was incubated for 15 min at 22° C. to allow pre-binding of the test compounds to the enzyme before the start of the kinase reaction. Then the kinase reaction was started by the addition of 3 μl of a solution of adenosine-tri-phosphate (ATP, 16.7 μM=>final conc. in the 5 μl assay volume is 10 μM) and substrate (1.67 μM=>final conc. in the 5 μl assay volume is 1 μM) in assay buffer and the resulting mixture was incubated for a reaction time of 60 min at 22° C. The concentration of Akt1 in the assay was adjusted depending of the activity of the enzyme lot and was chosen appropriate to have the assay in the linear range, typical enzyme concentrations were in the range of about 0.05 ng/μl (final conc. in the 5 μl assay volume). The reaction was stopped by the addition of 5 μl of a solution of HTRF detection reagents (200 nM streptavidine-XL665 [Cisbio] and 1.5 nM anti-phosho-Serine antibody [Millipore, cat. #35-001] and 0.75 nM LANCE Eu-W 1024 labeled anti-mouse IgG antibody [Perkin Elmer]) in an aqueous EDTA-solution (100 mM EDTA, 0.1% (w/v) bovine serum albumin in 50 mM HEPES/NaOH pH 7.5). The resulting mixture was incubated 1 h at 22° C. to allow the binding of the biotinylated phosphorylated peptide to the streptavidine-XL665 and the antibodies. Subsequently the amount of phosphorylated substrate was evaluated by measurement of the resonance energy transfer from the anti-mouse-IgG-Eu-Chelate to the streptavidine-XL665. Therefore, the fluorescence emissions at 620 nm and 665 nm after excitation at 350 nm was measured in a HTRF reader, e.g. a Rubystar (BMG Labtechnologies, Offenburg, Germany) or a Viewlux (Perkin-Elmer). The ratio of the emissions at 665 nm and at 622 nm was taken as the measure for the amount of phosphorylated substrate.

| Structure (SMILES) | IC50 [1] | IC50 [2] | IC50 [3] | IC50 (p-4E-BP1 at T70) | IC50 (phospho-AKT at S473) | IC50 [4] |
| --- | --- | --- | --- | --- | --- | --- |
| CCc1cc(OC)c2nc(-c3ccc(C4(N)CCC4)cc3)c(-c3ccccc3)n2n1 [Example 13, 1-[4-(6-Ethyl-8-methoxy-3-phenylimidazo[1,2-b]pyridazin-2-yl)phenyl]cyclobutanamine] | 1100 nM | 42 nM | 1500 nM | 660 nM |  |  |
| NC1(c2ccc(-c3nc4ccc(Cl)nn4c3-c3ccccc3)cc2)CCC1 [Example 17, 1-[4-(6-Chloro-3-phenylimidazo[1,2-b]pyridazin-2-yl)phenyl]cyclobutanamine] |  | 92 nM |  | 430 nM | 12 nM | 43 nM |
| CNC(=O)c1cc(OC)c2nc(-c3ccc(C4(N)CCC4)cc3)c(-c3ccccc3)n2n1 [Example 26, 2-[4-(1-Aminocyclobutyl)phenyl]-8-methoxy-N-methyl-3-phenylimidazo[1,2-b]pyridazine-6-carboxamide] | 1800 nM | 10 nM | 1800 nM | 90 nM | 0.9 nM |  |
| COC(=O)c1ccnn2c(-c3ccccc3)c(-c3ccc(C4(N)CCC4)cc3)nc12 [Example 31, Methyl 2-[4-(1-aminocyclobutyl)phenyl]-3-phenylimidazo[1,2-b]pyridazine-8-carboxylate] | 1400 nM | 140 nM | 8400 nM | 4300 nM | 1800 nM |  |
| Nc1ccc2nc(-c3ccc(C4(N)CCC4)cc3)c(-c3ccccc3)n2n1 [Example 35, 2-[4-(1-Aminocyclobutyl)phenyl]-3-phenylimidazo[1,2-b]pyridazin-6-amine] | 3000 nM | 1200 nM | 6100 nM | 1700 nM | 190 nM |  |
| CSc1ccc2nc(-c3ccc(C4(N)CCC4)cc3)c(-c3ccccc3)n2n1 [Example 36, 1-{4-[6-(Methylsulfanyl)-3-phenylimidazo[1,2-b]pyridazin-2-yl]phenyl}cyclobutanamine] | 1700 nM |  | 1800 nM | 1600 nM | 26 nM | 17 nM |
| CS(=O)(=O)c1ccc2nc(-c3ccc(C4(N)CCC4)cc3)c(-c3ccccc3)n2n1 [Example 38] | 510 nM |  | 740 nM | 530 nM | 20 nM | 370 nM |
| NC1(c2ccc(-c3nc4c(C5CC5)cc(Cl)nn4c3-c3ccccc3)cc2)CCC1 [Example 46, 1-[4-(6-Chloro-8-cyclopropyl-3-phenylimidazo [1,2-b]pyridazin-2-yl)phenyl]cyclobutanamine] | 1500 nM | 85 nM | 1900 nM | 300 nM | 430 nM |  |
| CCCc1ccnn2c(-c3ccccc3)c(-c3ccc(C4(N)CCC4)cc3)nc12 [Example 47, 1-[4-(3-Phenyl-8-propylimidazo[1,2-b]pyridazin-2-yl)phenyl]cyclobutanamine] | 1100 nM |  | 1700 nM | 96 nM | 140 nM | 220 nM |
| CNC(=O)c1cc(-c2ncc[nH]2)c2nc(-c3ccc(C4(N)CCC4)cc3)c(-c3ccccc3)n2n1 [Example 62, 2-[4-(1-Aminocyclobutyl)phenyl]-8-(1H-imidazol-2-yl)-N-methyl-3-phenylimidazo[1,2-b]pyridazine-6-carboxamide] |  | 62 nM |  | 35 nM | 0.4 nM | 16 nM |
| CNC(=O)c1cc(OCC2CC2)c2nc(-c3ccc(C4(N)CCC4)cc3)c(-c3ccccc3)n2n1 [Example 64, 2-[4-(1-Aminocyclobutyl)phenyl]-8-(cyclopropylmethoxy)-N-methyl-3-phenylimidazo[1,2-b]pyridazine-6-carboxamide] | 150 nM | 12 nM | 360 nM | 84 nM | 0.9 nM |  |
| NC1(c2ccc(-c3nc4c(-c5cc[nH]n5)cc(C(=O)O)nn4c3-c3ccccc3)cc2)CCC1 [Example 67, 2-[4-(1-Aminocyclobutyl)phenyl]-3-phenyl-8-(1H-pyrazol-3-yl)imidazo[1,2-b]-pyridazine-6-carboxylic acid] |  | 96 nM |  | > 10000 nM | > 10000 nM | 58 nM |
| CN(C)C(=O)c1ccc2nc(-c3ccc(C4(N)CCC4)cc3)c(-c3ccccc3)n2n1 [Example 69, 2-[4-(1-Aminocyclobutyl)phenyl]-N,N-dimethyl-3-phenylimidazo[1,2-b]pyridazine-6-carboxamide] | 1500 nM |  | 10000 nM | 4400 nM | 250 nM | 310 nM |

Continued by falling IC50 (p-4E-BP1 at T70), values first:

| IC50 [1] | IC50 [2] | IC50 [3] | IC50 (p-4E-BP1 at T70) | IC50 (phospho-AKT at S473) | IC50 [4] | Structure (SMILES) |
| --- | --- | --- | --- | --- | --- | --- |
| 73 nM |  | 1500 nM | 8100 nM | 1 nM | 7.2 nM | NC(=O)c1cc(-c2cc[nH]n2)c2nc(-c3ccc(C4(N)CCC4)cc3)c(-c3ccccc3)n2n1 [Example 60, 2-[4-(1-Aminocyclobutyl)phenyl]-3-phenyl-8-(1H-pyrazol-3-yl)imidazo[1,2-b]pyridazine-6-carboxamide] |
| 940 nM | 110 nM | 2600 nM | 2400 nM | 5.7 nM |  | NC1(c2ccc(-c3nc4ccc(C(=O)NCCO)nn4c3-c3ccccc3)cc2)CCC1 [Example 70, 2-[4-(1-Aminocyclobutyl)phenyl]-N-(2-hydroxyethyl)-3-phenylimidazo[1,2-b]pyridazine-6-carboxamide] |
| 6700 nM |  | 6200 nM | 1600 nM | 96 nM | 36 nM | CC(=O)c1ccc2nc(-c3ccc(C4(N)CCC4)cc3)c(-c3ccccc3)n2n1 [Example 43, 1-{2-[4-(1-Aminocyclobutyl)phenyl]-3-phenylimidazo[1,2-b]pyridazin-6-yl}ethanone] |
|  | 230 nM |  | 580 nM | 92 nM | 32 nM | CCOc1ccc2nc(-c3ccc(C4(N)CCC4)cc3)c(-c3ccccc3)n2n1 [Example 78, 1-[4-(6-Ethoxy-3-phenylimidazo[1,2-b]pyridazin-2-yl)phenyl]cyclobutanamine] |
| 1800 nM |  | 1700 nM | 500 nM | 200 nM | 35 nM | NC1(c2ccc(-c3nc4c(-c5ncc[nH]5)cc(Cl)nn4c3-c3ccccc3)cc2)CCC1 [Example 24, 1-{4-[6-Chloro-8-(1H-imidazol-2-yl)-3-phenyl-imidazo[1,2-b]pyridazin-2-yl]phenyl} cyclobutanamine] |
|  | 310 nM | 2000 nM | 380 nM | 800 nM |  | NC1(c2ccc(-c3nc4c(-c5ccc(F)cc5)ccnn4c3-c3ccccc3)cc2)CCC1 [Example 44, 1-{4-[8-(4-Fluorophenyl)-3-phenylimidazo[1,2-b]pyridazin-2-yl]phenyl}cyclobutanamine] |
| 330 nM | 14 nM | 1100 nM | 150 nM | 3.1 nM |  | NC(=O)c1cc(C(N)=O)c2nc(-c3ccc(C4(N)CCC4)cc3)c(-c3ccccc3)n2n1 [Example 34, 2-[4-(1-Aminocyclobutyl)phenyl]-3-phenylimidazo[1,2-b]pyridazine-6,8-dicarboxamide] |
| 1300 nM | 610 nM | 1100 nM | 29 nM | 42 nM |  | Nc1ccnn2c(-c3ccccc3)c(-c3ccc(C4(N)CCC4)cc3)nc12 [Example 48, 2-[4-(1-Aminocyclobutyl)phenyl]-3-phenylimidazo[1,2-b]pyridazin-8-amine] |
